What was measured:
Assay in all cases: relative viability (nuclei count vs DMSO), 5 days (fraction); higher = more cells survive
Linsitinib + Decitabine = compound: C[C@]1(O)C[C@@H](c2nc(-c3ccc4ccc(-c5ccccc5)nc4c3)c3c(N)nccn32)C1 [Linsitinib] + Nc1ncn([C@H]2C[C@H](O)[C@@H](CO)O2)c(=O)n1 [Decitabine] (partner 2 µM)
Method in brief: (§1)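 Each reported value is a median over duplicate plates. It expresses relative viability: treated-well nuclei count divided by vehicle-well nuclei count. Lung cancer cell lines in 1536-well plates were dosed by pin tool a day after seeding, alone with one drug or with a fixed anchor-drug dose plus five library-drug doses (not always all listed) in √10 steps, and nuclei were counted after 5 days.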

Ispinesib + Trametinib = compound: Cc1ccc(C(=O)N(CCCN)[C@@H](c2nc3cc(Cl)ccc3c(=O)n2Cc2ccccc2)C(C)C)cc1 [Ispinesib] + CC(=O)Nc1cccc(-n2c(=O)n(C3CC3)c(=O)c3c(Nc4ccc(I)cc4F)n(C)c(=O)c(C)c32)c1 [Trametinib] (partner 0.02 µM)
Method in brief: as §1

Ispinesib + Lapatinib = compound: Cc1ccc(C(=O)N(CCCN)[C@@H](c2nc3cc(Cl)ccc3c(=O)n2Cc2ccccc2)C(C)C)cc1 [Ispinesib] + CS(=O)(=O)CCNCc1ccc(-c2ccc3ncnc(Nc4ccc(OCc5cccc(F)c5)c(Cl)c4)c3c2)o1 [Lapatinib] (partner 2 µM)
Method in brief: as §1

Ispinesib + Tozasertib = compound: Cc1ccc(C(=O)N(CCCN)[C@@H](c2nc3cc(Cl)ccc3c(=O)n2Cc2ccccc2)C(C)C)cc1 [Ispinesib] + Cc1cc(Nc2cc(N3CCN(C)CC3)nc(Sc3ccc(NC(=O)C4CC4)cc3)n2)n[nH]1 [Tozasertib] (partner 0.1 µM)
Method in brief: as §1

Cell Line | relative viability (Linsitinib + Decitabine; first compound 0.01 µM) | relative viability (Linsitinib + Decitabine; first compound 0.03162 µM) | relative viability (Linsitinib + Decitabine; first compound 0.1 µM) | relative viability (Linsitinib + Decitabine; first compound 0.3162 µM) | relative viability (Linsitinib + Decitabine; first compound 1 µM) | relative viability (Ispinesib + Trametinib; first compound 0.001 µM) | relative viability (Ispinesib + Trametinib; first compound 0.003162 µM) | relative viability (Ispinesib + Trametinib; first compound 0.01 µM) | relative viability (Ispinesib + Trametinib; first compound 0.03162 µM) | relative viability (Ispinesib + Trametinib; first compound 0.1 µM) | relative viability (Ispinesib + Lapatinib; first compound 0.001 µM) | relative viability (Ispinesib + Lapatinib; first compound 0.003162 µM) | relative viability (Ispinesib + Lapatinib; first compound 0.01 µM) | relative viability (Ispinesib + Lapatinib; first compound 0.03162 µM) | relative viability (Ispinesib + Lapatinib; first compound 0.1 µM) | relative viability (Ispinesib + Tozasertib; first compound 0.001 µM) | relative viability (Ispinesib + Tozasertib; first compound 0.003162 µM) | relative viability (Ispinesib + Tozasertib; first compound 0.01 µM) | relative viability (Ispinesib + Tozasertib; first compound 0.03162 µM) | relative viability (Ispinesib + Tozasertib; first compound 0.1 µM)
NCI-H2126 | 0.6 | 0.675 | 0.574 | 0.544 | 0.577 | 0.542 | 0.574 | 0.58 | 0.589 | 0.508 | 0.719 | 0.804 | 0.846 | 0.781 | 0.534 | 0.813 | 0.913 | 0.944 | 0.644 | 0.449
LU99A | 0.924 | 0.881 | 0.81 | – | 0.917 | 0.514 | 0.579 | 0.577 | 0.335 | 0.352 | 0.992 | 1.11 | 1.14 | 0.192 | 0.201 | 0.261 | 0.282 | 0.29 | 0.262 | 0.273
NCI-H23 | 0.305 | 0.314 | 0.322 | 0.264 | 0.298 | 0.372 | 0.472 | 0.32 | 0.358 | 0.208 | 0.915 | 1.16 | 1.04 | 0.245 | 0.293 | 0.428 | 0.414 | 0.74 | 0.33 | 0.272
PC-14 | 0.2 | 0.196 | 0.22 | 0.158 | 0.172 | 0.788 | 0.707 | 0.282 | 0.0652 | 0.101 | 0.331 | 0.397 | 0.363 | 0.421 | 0.125 | 0.662 | 0.669 | 0.624 | 0.433 | 0.0644
HCC-44 | 0.922 | 0.977 | 0.919 | 0.552 | 0.746 | 1.06 | 1.05 | 1.09 | 1.07 | 1.11 | 1.05 | 1.01 | 1.37 | 0.658 | 0.158 | 0.928 | 1.05 | 1.09 | 0.679 | 0.209
A-427 | 0.597 | 0.595 | 0.577 | – | 0.523 | 0.721 | 0.811 | 0.745 | 0.463 | 0.226 | 1.09 | 1.07 | 1.13 | 0.406 | 0.162 | 0.203 | 0.216 | 0.189 | 0.185 | 0.23
NCI-H596 | 1.03 | 1.06 | 1.11 | 0.976 | 1.01 | 0.745 | 0.876 | 0.799 | 0.83 | 0.706 | 0.978 | 1.18 | 1.02 | 0.897 | 0.402 | 0.956 | 0.86 | 0.916 | 0.945 | 0.432
RERF-LC-KJ | 0.726 | 0.651 | 0.622 | 0.599 | 0.665 | 0.898 | 0.869 | 0.787 | 0.514 | 0.528 | 1.02 | 0.835 | 0.931 | 0.831 | 0.304 | 0.593 | 0.412 | 0.329 | 0.262 | 0.354
NCI-H647 | 0.39 | 0.524 | 0.395 | 0.405 | 0.43 | 0.536 | 0.508 | 0.434 | 0.209 | 0.133 | 1.28 | 0.693 | 0.481 | 0.106 | 0.114 | 0.323 | 0.201 | 0.0519 | 0.217 | 0.303
NCI-H1734 | 0.512 | 0.502 | 0.463 | 0.516 | 0.487 | 0.685 | 0.622 | 0.684 | 0.684 | 0.429 | 1.16 | 1.11 | 1.4 | 0.408 | 0.296 | 0.258 | 0.121 | 0.25 | 0.254 | 0.218
SK-LU-1 | 0.605 | 0.635 | 0.637 | 0.624 | 0.602 | 0.506 | 0.524 | 0.458 | 0.359 | 0.356 | 0.797 | 1.06 | 0.825 | 0.468 | 0.364 | 0.393 | 0.335 | 0.31 | 0.288 | 0.289
NCI-H1395 | 0.691 | – | 0.777 | 0.695 | 0.702 | 1.13 | 1.1 | 1.06 | 0.682 | 0.409 | 1.1 | 1.11 | 0.779 | 0.545 | 0.33 | 0.778 | 0.874 | 0.808 | 0.58 | 0.404
COR-L23 | 0.399 | 0.539 | 0.418 | 0.351 | 0.441 | 0.611 | 0.565 | 0.376 | 0.103 | 0.168 | 1.03 | 1.06 | 0.814 | 0.147 | 0.272 | 0.26 | 0.231 | 0.204 | 0.178 | 0.152
EMC-BAC-2 | 0.98 | 1.11 | 0.881 | 0.733 | 0.727 | 0.846 | 0.966 | 0.965 | 0.624 | 0.312 | 0.936 | 0.933 | 1 | 0.724 | 0.233 | 0.28 | 0.189 | 0.289 | 0.292 | 0.261
NCI-H1355 | 0.378 | 0.353 | 0.334 | 0.309 | 0.317 | 0.469 | 0.456 | 0.41 | 0.414 | 0.288 | 1.09 | 0.93 | 1.22 | 0.644 | 0.3 | 0.566 | 0.608 | 0.548 | 0.503 | 0.486
NCI-H1944 | 0.426 | 0.53 | 0.422 | 0.398 | 0.341 | 0.431 | 0.408 | 0.36 | 0.383 | 0.334 | 0.863 | 0.799 | 1.01 | 0.528 | 0.27 | 0.263 | 0.249 | 0.275 | 0.225 | 0.234
HOP-62 | 0.194 | 0.241 | 0.194 | – | 0.201 | 0.349 | 0.373 | 0.406 | 0.441 | 0.42 | 1.11 | 1.07 | 1.15 | 1.11 | 0.231 | 0.373 | 0.47 | 0.389 | 0.449 | 0.406
NCI-H2009 | 0.36 | 0.4 | 0.366 | 0.359 | 0.396 | 0.28 | 0.271 | 0.287 | 0.203 | 0.151 | 0.954 | 0.781 | 0.558 | 0.142 | 0.305 | 0.788 | 0.837 | 0.786 | 0.706 | 0.489
